# Patent US11234967B2, “Use of 3-[5-amino-4-(3-cyanobenzoyl)-pyrazol-1-yl]-n-cyclopropyl-4-methylbenzamide in the prevention or reduction of acute exacerbations of chronic obstructive pulmonary disease” (MEREO BIOPHARMA 1 LIMITED, priority 2017, dated 2022)
# Key:
# [1] = test system: acute exacerbations of COPD; experiment: AETHER Phase 2 trial: occurrence of new acute exacerbations of COPD / re-hospitalisation out to 6 months; type: in vivo, human
# From the text: A Phase 2 trial (referred to as […]) was a double-blind, randomised, placebo-controlled clinical study investigating the use of BCT-197, on top of Standard of Care, for the treatment of patients with AECOPD. Standard of Care included the addition of steroids and/or antibiotics to a patient's chronic COPD medication and symptomatic bronchodilators. Following baseline assessment, 282 eligible patients were randomised to receive either one of two different dose regimens of BCT-197 or placebo (three doses over five days). The trial assessed adult patients ≥40 years with an acute exacerbation of COPD (as defined by increase in symptoms of cough, and/or sputum and/or breathlessness that required addition of antibiotics and or systemic corticosteroids to their regular treatment). The dosing regimen of 3-[5-amino-4-(3-cyanobenzoyl)-pyrazol-1-yl]-N-cyclopropyl-4-methylbenzamide or matching oral placebo administered are shown in Table 1. [table] BCT197 or placebo was added on top of the standard of care for the exacerbation. Exploratory long term outcomes after the acute treatment were included out to 6 months. […] Inclusion criteria for the study population were: • Males/females≥40 • On regular treatment for COPD (categories C and D by 2015 GOLD guidelines) • Presence of an active exacerbation of the ongoing COPD requiring hospitalisation for treatment: • At least one moderate or severe COPD exacerbation in the preceding 12 months • Smoking history of at least 10 pack years • FEV1<65% of the predicted normal value Exclusion criteria for the study population were: • Current diagnosis of asthma • Treatment with systemic corticosteroids or antibiotics in the prior 4 weeks. • Requiring intensive care unit treatment • Clinically significant cardiovascular condition of clinically significant ECG abnormality • Concurrent pneumonia, pulmonary embolus or pneumothorax
# AECOPD = details: single oral dose; cited from earlier work
# [2] = test system: lymphocytes and neutrophils; experiment: AETHER Phase 2 trial: % lymphocytes and neutrophils in blood; type: in vivo, human
# From the text: (§1) A Phase 2 trial (referred to as AETHER) was a double-blind, randomised, placebo-controlled clinical study investigating the use of BCT-197, on top of Standard of Care, for the treatment of patients with AECOPD. Standard of Care included the addition of steroids and/or antibiotics to a patient's chronic COPD medication and symptomatic bronchodilators. Following baseline assessment, 282 eligible patients were randomised to receive either one of two different dose regimens of BCT-197 or placebo (three doses over five days).
# Systemic markers of adaptive and innate immunity are predictive of disease progression in COPD. […] Consequently, the effect of BCT197 to rebalance these biomarkers to a healthier phenotype, including beyond the period of systemic drug exposure, supports the potential benefit of the dosing regimens of the present invention.
# fibrinogen = experiment: AETHER Phase 2 trial: fibrinogen blood concentration; type: in vivo, human; details: high and low dose over 5 days; to Day 14; including <2% eosinophils; maximal at Day 7; FIG. 13
# From the text: as §1, with “either” for “either one of”, “days). The primary endpoint was a comparison of change in forced expiratory volume in 1 second (FEV1) from baseline to day 7 within each arm of the study.” for “days).”
# (§2) A further exploratory outcome included over the treatment period to Day 5 and BCT197 systemic exposure (to Day 14) were the inflammatory biomarkers high sensitivity C-Reactive Protein (hsCRP) and fibrinogen measured in patient blood. […] This was maximal at Day 7 (FIGS. 12 and 13) coincident with the highest improvement in FEV1 (FIG. 11) in response to BCT197 in the same patient population with <2% eosinophils.
# [3] = test system: high sensitivity C-Reactive Protein (hsCRP); experiment: AETHER Phase 2 trial: hsCRP blood concentration; type: in vivo, human
# From the text: as §1
# Inflammatory biomarkers are related to disease outcomes (Barnes and Celli, Eur Respir J, 2009, 33, pp 1165-1185; Bourdin et al., Eur Respir Rev, 2009, 18, pp 198-212) and are central to the proposed mechanism of action for BCT197. A further exploratory outcome was included out to 6 months, namely the inflammatory biomarker high sensitivity C-Reactive Protein (hsCRP) measured in patients. […] This is supportive that treatment in accordance with the invention leads to a reduction in re-hospitalisations and non-hospitalised exacerbations over this period through long term reduction in inflammation.
# After the acute treatment period, the hsCRP remains lower in those who had received BCT197 compared to placebo to Day 180 (p value<0.05) without additional dosing of BCT197, supporting a prolonged pharmacology effect on inflammation by BCT197.
# as §2
# patients with AECOPD = experiment: AETHER Phase 2 trial: change in FEV1 from baseline to Day 7; type: in vivo, human; details: for FEV1 change from baseline to Day 7, sub-group with blood eosinophils <2%: on top of standard of care, compared to other sub-groups and placebo, FIGS. 10, 11
# From the text: as §1, with “either” for “either one of”, “days). The primary endpoint was a comparison of change in forced expiratory volume in 1 second (FEV1) from baseline to day 7 within each arm of the study.” for “days).”
# The trial assessed adult patients≥40 years with an acute exacerbation of COPD (as defined by increase in symptoms of cough, and/or sputum and/or breathlessness that required addition of antibiotics and or systemic corticosteroids to their regular treatment).
# Patients received one of two oral dosing regimens of 3-[5-amino-4-(3-cyanobenzoyl)-pyrazol-1-yl]-N-cyclopropyl-4-methylbenzamide or matching oral placebo administered according to the dosing schedules shown in Table 2.
# Inclusion criteria for the study population were: • Males/females≥40 • On regular treatment for COPD (categories C and D by 2015 GOLD guidelines) • Presence of an active exacerbation of the ongoing COPD requiring hospitalisation for treatment: • At least one moderate or severe COPD exacerbation in the preceding 12 months • Smoking history of at least 10 pack years • FEV1<65% of the predicted normal value […]
# Efficacy of treatment was measured by the primary endpoint of change in FEV1 from baseline (before treatment) to Day 7. Patients with COPD and low eosinophils (determined by blood percentages or absolute counts) are considered to be poorly responsive to treatment of acute exacerbations using known treatments.
structure (smiles),measurement,setting,value
"Cc1ccc(C(=O)NC2CC2)cc1-n1ncc(C(=O)c2cccc(C#N)c2)c1N [BCT197, 3-[5-amino-4-(3-cyanobenzoyl)-pyrazol-1-yl]-N-cyclopropyl-4-methylbenzamide]",re-hospitalisation for COPD,"[1]; both high and low dose over 5 days, subsequent 6 months, high eosinophil sub group (Eos>2%), vs placebo, FIG. 3",able to reduce re-hospitalisation for COPD
same,reduction of occurrence of new exacerbations that require hospitalisation,"[1]; high dose (75/40/40 mg, days 1, 3, 5) on top of standard of care, subsequent 6 months, vs placebo, FIG. 1",40-60%
same,period of greatest effect on new exacerbations that require hospitalisation,"[1]; high dose, based on numerical difference to placebo and statistical significance",between 3 and 4 months
same,recurrent exacerbations that were not hospitalised,"[1]; short course of high dose, FIG. 2",reductions
same,recovery of AECOPD to the stable disease state,AECOPD,accelerates the recovery to the stable disease state
same,change from baseline in % neutrophils during acute treatment,"[2]; high and low dose vs placebo, greater than placebo with dose-dependent effect, FIG. 8",rapid decrease in % neutrophils
same,change from baseline in % lymphocytes over the acute treatment period,"[2]; high and low dose vs placebo, to Day 14, FIG. 7",dose-dependent increase in lymphocytes
same,reduction in % neutrophils compared to placebo to Day 56,"[2]; without additional dosing, FIG. 9",remains greater
same,fibrinogen from baseline versus placebo,fibrinogen,dose-dependent reduction
same,hsCRP for the subsequent 6 months versus placebo,"[3]; both high and low dose over 5 days, both high and low eosinophil sub group, FIGS. 4 and 5",sustained and durable reduction in hsCRP
same,hsCRP from baseline versus placebo,"[3]; high and low dose over 5 days, to Day 14, including <2% eosinophils, maximal at Day 7, FIG. 12",dose-dependent reduction
same,decrease in hsCRP to day 7 during acute treatment compared to placebo,"[3]; high dose, combined Eos>2% and <2%, p<0.05 at Day 3, 7 and 10, FIG. 6",significantly greater
same,hsCRP after the acute treatment period compared to placebo,"[3]; high dose, to Day 180 without additional dosing, p value<0.05, FIG. 6",remains lower
same,"FEV1: relative difference to standard of care, >2% eosinophil sub-population",patients with AECOPD; FIG. 10 right hand side,much less than in the low eosinophil group
same,"FEV1 change from baseline to Day 7, sub-group with blood eosinophils <2%",patients with AECOPD,substantial and consistent improvement in FEV1
same,"FEV1 change from baseline to Day 7, sub-group with blood eosinophils <2%",patients with AECOPD; listed as compound A,significant improvement
